Test results reported in US7511133B2, “Adenosine A3 receptor agonists” (King Pharmaceuticals Research and Development, Inc., priority 2003, dated 2009).
Where two headings read alike, the source gives them in different places.

What was measured:
[1] = molecular target: T1, human A2A adenosine receptors (Homo sapiens, UniProt P29274); assay: Displacement of [^3H]CGS21680 binding, human A2A adenosine receptors in CHO cells (agonist radioligand); settings: read-out: Ki(A2A). Displacement of [^3H]CGS21680 binding to human A2A adenosine receptors exp. in CHO cells.
T1 construct: expressed in transfected cells; host or cells: CHO cells
T1 sequence (P29274 whole entry): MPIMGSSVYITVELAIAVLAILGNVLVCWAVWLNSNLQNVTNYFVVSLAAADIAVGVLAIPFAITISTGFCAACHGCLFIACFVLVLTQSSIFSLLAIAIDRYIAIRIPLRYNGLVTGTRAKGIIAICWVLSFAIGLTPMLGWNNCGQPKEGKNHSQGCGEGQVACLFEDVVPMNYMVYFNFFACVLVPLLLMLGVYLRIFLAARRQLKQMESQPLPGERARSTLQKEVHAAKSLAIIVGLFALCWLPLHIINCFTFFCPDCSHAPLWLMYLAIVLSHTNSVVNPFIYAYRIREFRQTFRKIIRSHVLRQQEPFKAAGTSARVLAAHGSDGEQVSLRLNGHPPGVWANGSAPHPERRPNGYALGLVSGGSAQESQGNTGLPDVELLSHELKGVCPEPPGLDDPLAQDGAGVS

[2] = molecular target: T2, human A1 adenosine receptors (Homo sapiens, UniProt P30542); assay: Displacement of [^3H]CHA binding, human A1 adenosine receptors in CHO cells (agonist radioligand)
T2 sequence (P30542 1-326): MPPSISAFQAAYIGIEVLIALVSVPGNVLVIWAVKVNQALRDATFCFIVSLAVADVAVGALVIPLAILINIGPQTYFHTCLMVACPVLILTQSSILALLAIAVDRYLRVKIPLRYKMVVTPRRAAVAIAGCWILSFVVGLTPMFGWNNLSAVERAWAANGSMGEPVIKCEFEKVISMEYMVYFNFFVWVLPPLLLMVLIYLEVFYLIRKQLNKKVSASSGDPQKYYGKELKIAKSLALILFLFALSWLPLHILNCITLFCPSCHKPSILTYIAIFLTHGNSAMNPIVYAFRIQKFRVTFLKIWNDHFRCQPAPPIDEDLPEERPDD

[3] = molecular target: T3, human A3 adenosine receptors (Homo sapiens, UniProt P0DMS8); settings: for A1/A3: ratio Ki(A1)/Ki(A3), agonist radioligands
T3 sequence (P0DMS8 1-318): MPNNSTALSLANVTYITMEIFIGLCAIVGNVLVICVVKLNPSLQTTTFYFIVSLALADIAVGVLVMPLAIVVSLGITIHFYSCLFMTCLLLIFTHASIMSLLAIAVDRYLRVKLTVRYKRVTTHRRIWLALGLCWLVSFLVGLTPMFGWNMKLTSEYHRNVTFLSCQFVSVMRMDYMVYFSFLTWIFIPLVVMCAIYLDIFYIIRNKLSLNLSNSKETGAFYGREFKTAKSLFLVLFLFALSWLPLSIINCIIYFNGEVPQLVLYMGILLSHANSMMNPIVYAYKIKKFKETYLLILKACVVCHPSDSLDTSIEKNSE

[4] = human A2A, CHO cells, [^3H]CGS21680

Row | SMILES | Ki [1, 4] [nM] | melting point [°C] | Ki [2] [nM] | Ki [3] [nM] | A1/A3 [3] | Ki [1] [nM] | Ki ([2]; read-out: Ki(A1). Displacement of [^3H]CHA binding to human A1 adenosine receptors exp. in CHO cells., human A1, CHO cells, [^3H]CHA, confidence limits in parentheses) [nM]
1 | C=CCN(CC=C)S(=O)(=O)c1ccc(NC(=O)Nc2ncnc3c2ncn3[C@@H]2O[C@H](C(=O)NCC)[C@@H](O)[C@H]2O)cc1 [Compound 99, 1-Deoxy-1-[6-[[[[4-[N,N-bis(allyl)amino-sulfonyl]phenyl]amino]carbonyl]amino]-9H-purin-9-yl]-N-ethyl-β-D-ribofuranuronamide] | > 1000 | 126 | 380 | 10 | 38 | – | –
2 | CCNC(=O)[C@H]1O[C@@H](n2cnc3c(NC(=O)Nc4ccc(S(=O)(=O)N(CC)CC)cc4)ncnc32)[C@H](O)[C@@H]1O [Compound 100, 1-Deoxy-1-[6-[[[[4-[N,N-bis(ethyl)amino-sulfonyl]phenyl]amino]carbonyl]amino]-9H-purin-9-yl]-N-ethyl-β-D-ribofuranuronamide] | > 1000 | 168 | – | – | – | – | –
3 | CCNC(=O)[C@H]1O[C@@H](n2cnc3c(NC(=O)Nc4ccc(S(=O)(=O)NC5C=CCC5)cc4)ncnc32)[C@H](O)[C@@H]1O (stereo partly drawn) [Compound 101] | – | – | – | – | 13.16 | > 1000 | 250

More lines, main results first:

Row | Ki [1, 4] [nM] | melting point [°C] | Ki [2] [nM] | Ki [3] [nM] | SMILES | A1/A3 [3] | Ki [1] [nM] | Ki ([2]; read-out: Ki(A1). Displacement of [^3H]CHA binding to human A1 adenosine receptors exp. in CHO cells., human A1, CHO cells, [^3H]CHA, confidence limits in parentheses) [nM]
4 | > 1000 | 176 | 280 | – | CCNC(=O)[C@H]1O[C@@H](n2cnc3c(NC(=O)Nc4ccc(S(=O)(=O)N(C)C)cc4)ncnc32)C(O)C1O (stereo partly drawn) [Compound 98, 1-Deoxy-1-[6-[[[[4-[N,N-(dimethyl)amino-sulfonyl]phenyl]amino]carbonyl]amino]-9H-purin-9-yl]-N-ethyl-β-D-ribofuranuronamide] | – | – | –
5 | > 1000 | – | 350 | 14 | CCCN(CCC)S(=O)(=O)c1ccc(NC(=O)Nc2ncnc3c2ncn3[C@@H]2O[C@H](C(=O)NCC)[C@@H](O)[C@H]2O)cc1 [Compound 102, 1-Deoxy-1-[6-[[[[4-[N,N-bis(propyl)aminosulfonyl]phenyl]amino]-carbo-nyl]amino]-9H-purin-9-yl]-N-ethyl-β-D-ribofuranuronamide] | – | – | –
6 | – | 188 to 189 | – | – | CCNC(=O)[C@H]1O[C@@H](n2cnc3c(NC(=O)Nc4cccc(S(=O)(=O)NC56C[C@H]7C[C@@H](C5)C[C@@H](C6)C7)c4)ncnc32)C(O)C1O (stereo partly drawn) [Compound 113, 1-Deoxy-N-ethyl-1-[[6-[[[3-N-(adamantan-1-yl)-sulfonamidophenyl]amino]carbonyl]amino]-9H-purin-9-yl]-b-D-ribofuran-uronamide] | – | – | –
7 | – | 145 to 146 | – | – | CCNC(=O)[C@H]1O[C@@H](n2cnc3c(NC(=O)Nc4cccc(S(=O)(=O)N5CC=CC5)c4)ncnc32)C(O)C1O (stereo partly drawn) [Compound 114, 1-Deoxy-N-ethyl-1-[[6-[[[3-(2,5-dihydropyrrol-1-yl)sulfonylphenyl]amino]carbonyl]amino]-9H-purin-9-yl]-b-D-ribofuranuronamide] | – | – | –
